# Biological target: T1, HDAC6 (Homo sapiens, UniProt Q9UBN7)
# T1 construct: made in house; host or cells: E. coli BL21 (DE3), pET-28a plasmid
# T1 sequence (Q9UBN7 1-1215): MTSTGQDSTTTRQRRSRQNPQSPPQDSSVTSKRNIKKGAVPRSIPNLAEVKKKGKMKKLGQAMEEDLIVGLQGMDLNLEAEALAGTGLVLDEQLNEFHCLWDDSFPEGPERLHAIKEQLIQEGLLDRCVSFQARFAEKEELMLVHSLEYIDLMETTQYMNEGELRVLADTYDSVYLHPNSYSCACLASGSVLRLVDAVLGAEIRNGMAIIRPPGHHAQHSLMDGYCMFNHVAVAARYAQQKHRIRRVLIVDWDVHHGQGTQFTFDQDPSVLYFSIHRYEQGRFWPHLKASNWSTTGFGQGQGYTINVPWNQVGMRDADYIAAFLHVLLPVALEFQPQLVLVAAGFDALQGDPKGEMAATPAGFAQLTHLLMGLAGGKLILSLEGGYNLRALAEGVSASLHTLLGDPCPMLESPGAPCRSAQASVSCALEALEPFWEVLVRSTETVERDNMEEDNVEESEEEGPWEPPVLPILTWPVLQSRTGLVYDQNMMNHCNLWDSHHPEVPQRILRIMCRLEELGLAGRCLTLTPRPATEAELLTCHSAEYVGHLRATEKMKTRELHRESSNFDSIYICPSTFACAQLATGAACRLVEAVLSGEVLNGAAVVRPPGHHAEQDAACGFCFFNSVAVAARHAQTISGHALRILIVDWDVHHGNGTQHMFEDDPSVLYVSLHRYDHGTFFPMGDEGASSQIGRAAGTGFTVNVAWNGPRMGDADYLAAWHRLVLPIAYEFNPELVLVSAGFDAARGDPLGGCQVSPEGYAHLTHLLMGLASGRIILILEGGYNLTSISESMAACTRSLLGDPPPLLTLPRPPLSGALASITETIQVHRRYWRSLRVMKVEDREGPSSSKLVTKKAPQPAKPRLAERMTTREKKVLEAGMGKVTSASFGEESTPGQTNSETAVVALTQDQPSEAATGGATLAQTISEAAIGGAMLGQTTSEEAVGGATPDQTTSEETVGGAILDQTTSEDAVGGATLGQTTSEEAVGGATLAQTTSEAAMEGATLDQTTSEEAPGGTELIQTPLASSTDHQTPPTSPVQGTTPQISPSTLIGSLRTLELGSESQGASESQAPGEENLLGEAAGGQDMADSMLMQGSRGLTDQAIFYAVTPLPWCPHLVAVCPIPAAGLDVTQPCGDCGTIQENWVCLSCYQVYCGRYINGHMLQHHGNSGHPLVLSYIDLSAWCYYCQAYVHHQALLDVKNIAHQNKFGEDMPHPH
# Assay: HDAC6 enzyme inhibition, fluorescence assay
# Type: biochemical
# Details: for IC50: 7 concentrations, 4-fold dilution from 250 nM, 4 hours substrate incubation at room temperature; for Hill Slope: Hill slope of fitted dose-effect curve (GraphPad Prism); for Emax: top of fitted dose-effect curve of inhibition rate (GraphPad Prism)
# Protocol: The compounds to be tested were balanced to room temperature, and the compounds were diluted 4 times with DMSO in a 384-well plate, with a starting working concentration of 250 nM and a total of 7 concentration gradients. 250 nl of the diluted drug solution was transferred to the 384-well reaction plate using Echo 550, where 250 nl of DMSO was transferred to the control wells Max and Min wells: the HDAC6 enzyme stock solution was diluted to 1.67× with 1× enzyme reaction system buffer solution; the reaction substrate was diluted to 2.5× with 1× enzyme reaction system buffer solution: 15 μl of the above diluted enzyme working solution was added to each reaction well, and 15 μl of 1× enzyme reaction system buffer solution was added to the Min well. Incubate at room temperature for 15 min; add 10 μl of the above-diluted enzyme reaction substrate to each reaction well and incubate at room temperature for 4 hours to allow the reaction to proceed fully; add 3.5×Trypsin reaction stop solution to each reaction well and incubate at 37° C. for 90 min to terminate the reaction; read the fluorescence signal at the end of the reaction on the microplate reader.
# The calculation formula for the inhibition rate of the compound on HDAC6 is as follows:
# Where […] is the mean of the detection values of the sample wells of each Max well (only DMSO and enzyme); […] represents the average value of the detection values of each Min well (without enzyme); Sample Signal is the mean of the detection values of each compound-treated well. The dose-effect curve was fitted using GraphPad Prism software, and the IC50 of the compound on enzyme inhibition was calculated (as shown in Table 5).
IC50 [nM],Hill Slope,Emax [%],Structure (SMILES)
2.2,1.6,98,O=C(C(=O)N1CC(O)CCC1C(=O)OCCc1ccccc1C(=O)OCCc1ccccc1)c1ccccn1 (stereo not drawn) [Compound 13]
0.63,1.2,96,O=C(OCC1CCCCC1)c1ccc(COC(=O)C2COC(O)CN2C(=O)C(=O)c2cc3ccccc3[nH]2)nc1 (stereo not drawn) [Compound 1]
1.5,0.8,98,Cc1ccc(S(=O)(=O)N2CC(O)CCC2C(=O)OCCc2cccc(C(=O)OCc3ccccc3Cl)c2)cc1 (stereo not drawn) [Compound 10]
5.99,0.8638,106,O=C(OCC1CCCCC1)c1ccc(COC(=O)C2CCC(O)CN2C(=O)C(=O)c2cccc3ccccc23)nc1 (stereo not drawn) [Compound 15]
53.8,0.83,99.3,O=C(OCc1ccccc1Cl)c1ccnc(CCOC(=O)C2CCC(O)CN2C(=O)C(=O)c2ccccn2)c1 (stereo not drawn) [Compound 20]
0.58,1.1,102,COc1cccc(COC(=O)c2cccc(CCOC(=O)C3CCC(O)CN3C(=O)C(=O)C3=Cc4ccccc4C3)c2)c1 (stereo not drawn) [Compound 17]
19.4,0.8205,96.4,Cc1ccc(S(=O)(=O)N2CC(O)CCC2C(=O)OCc2ccc(C(=O)OCc3ccccc3Cl)cn2)cc1 (stereo not drawn) [Compound 9]
0.75,1.1,100,Cc1ccc(C(=O)C(=O)N2CC(O)SCC2C(=O)OCc2cc(C(=O)OCc3cccc(Br)c3)ccn2)cc1 (stereo not drawn) [Compound 6]
2.9,1.5,101,Cc1ccccc1C(=O)C(=O)N1CC(O)OCC1C(=O)OCc1ccccc1C(=O)OCc1ccccc1Cl (stereo not drawn) [Compound 8]
13.3,1.06,91.4,Cc1ccccc1S(=O)(=O)N1CC(O)CCC1C(=O)OCCc1cnccc1C(=O)OCc1ccncc1 (stereo not drawn) [Compound 4]

# The remaining lines, values behind:
Structure (SMILES),IC50 [nM],Hill Slope,Emax [%]
O=C(OCC1CCCCC1)c1ccnc(CCOC(=O)C2C[Se]C(O)CN2C(=O)C(=O)c2cccc3ccccc23)c1 (stereo not drawn) [Compound 14],132,0.8,100
O=C(C(=O)N1CC(O)CCC1C(=O)OCCC1CCCCC1C(=O)OCc1cccc(Br)c1)c1cc2ccccc2[nH]1 (stereo not drawn) [Compound 11],0.23,1,100
O=C(OCc1ccncc1)c1ccnc(CCOC(=O)C2CSC(O)CN2C(=O)C(=O)c2ccccn2)c1 (stereo not drawn) [Compound 18],0.92,1,102
O=C(OCc1ccccn1)C1CCC(COC(=O)C2C[Se]C(O)CN2S(=O)(=O)c2ccccc2)CC1 (stereo not drawn) [Compound 2],0.85,1.1,99
O=C(C(=O)N1CC(O)SCC1C(=O)OCCC1CCCCC1C(=O)OCc1ccccn1)c1cc2ccccc2[nH]1 (stereo not drawn) [Compound 19],2.6,1.6,96
O=C(C(=O)N1CC(O)OCC1C(=O)OCCC1CCCCC1C(=O)OCc1ccc(Cl)cc1)c1ccccn1 (stereo not drawn) [Compound 7],0.85,0.9,102
COc1ccc(COC(=O)c2ccc(CCOC(=O)C3C[Se]C(O)CN3C(=O)C(=O)c3ccncc3)nc2)cc1 (stereo not drawn) [Compound 12],0.41,1.1,101
CC(COC(=O)c1cccc(COC(=O)C2COC(O)CN2C(=O)C(=O)C2=Cc3ccccc3C2)c1)c1ccccc1 (stereo not drawn) [Compound 16],3.9,1,99

# From patent US20250340863A1, “POLYPEPTIDE-ENCODED LIBRARY AND SCREENING METHOD USING SAME” (WHOLESOME FUTURE LIMITED, priority 2022, published 2025)
